Molecules are shown by their SMILES.

We go through one compound from patent US6413782B1, “Methods of manufacturing high-throughput screening systems” (priority 1996, dated 2002).

For this assay, the target named is β-galactosidase (Escherichia coli, UniProt P00722). Put plainly: Enzyme inhibitor screen in planar chip format (continuous flow, fluorogenic substrate FDG). The assay is classed as biochemical. The settings on record: IPTG 200 mM in inhibitor well; β-Galactosidase 180 U/ml; substrate FDG 400 μM; 20 mM Tris pH 8.5; versus buffer control. On the procedure: The numbers adjacent the channels represent the lengths of each channel in millimeters. Two voltage states were applied to the ports of the chip. […] A control experiment was also run in which buffer was placed into the inhibitor well.
Enzyme: β-Galactosidase (180 U/ml in 50 mM Tris/ 300 μg/ml BSA
Substrate: Fluorescein-digalactoside (FDG) 400 μM
Buffer: 20 mM Tris, pH 8.5
Enzyme and substrate were continually pumped through the main channel from their respective ports under both voltage states. Inhibitor or Buffer were delivered into the main channel alternately from their respective wells by alternating between voltage state 1 and voltage state 2. When no inhibitor was present at the detection end of the main channel, a base line level of fluorescent product was produced. […] FIG. 9B a superposition of the two data segments from FIG. 9A, directly comparing the inhibitor data with control (buffer) data.

β-galactosidase, sequence (P00722 2-1024): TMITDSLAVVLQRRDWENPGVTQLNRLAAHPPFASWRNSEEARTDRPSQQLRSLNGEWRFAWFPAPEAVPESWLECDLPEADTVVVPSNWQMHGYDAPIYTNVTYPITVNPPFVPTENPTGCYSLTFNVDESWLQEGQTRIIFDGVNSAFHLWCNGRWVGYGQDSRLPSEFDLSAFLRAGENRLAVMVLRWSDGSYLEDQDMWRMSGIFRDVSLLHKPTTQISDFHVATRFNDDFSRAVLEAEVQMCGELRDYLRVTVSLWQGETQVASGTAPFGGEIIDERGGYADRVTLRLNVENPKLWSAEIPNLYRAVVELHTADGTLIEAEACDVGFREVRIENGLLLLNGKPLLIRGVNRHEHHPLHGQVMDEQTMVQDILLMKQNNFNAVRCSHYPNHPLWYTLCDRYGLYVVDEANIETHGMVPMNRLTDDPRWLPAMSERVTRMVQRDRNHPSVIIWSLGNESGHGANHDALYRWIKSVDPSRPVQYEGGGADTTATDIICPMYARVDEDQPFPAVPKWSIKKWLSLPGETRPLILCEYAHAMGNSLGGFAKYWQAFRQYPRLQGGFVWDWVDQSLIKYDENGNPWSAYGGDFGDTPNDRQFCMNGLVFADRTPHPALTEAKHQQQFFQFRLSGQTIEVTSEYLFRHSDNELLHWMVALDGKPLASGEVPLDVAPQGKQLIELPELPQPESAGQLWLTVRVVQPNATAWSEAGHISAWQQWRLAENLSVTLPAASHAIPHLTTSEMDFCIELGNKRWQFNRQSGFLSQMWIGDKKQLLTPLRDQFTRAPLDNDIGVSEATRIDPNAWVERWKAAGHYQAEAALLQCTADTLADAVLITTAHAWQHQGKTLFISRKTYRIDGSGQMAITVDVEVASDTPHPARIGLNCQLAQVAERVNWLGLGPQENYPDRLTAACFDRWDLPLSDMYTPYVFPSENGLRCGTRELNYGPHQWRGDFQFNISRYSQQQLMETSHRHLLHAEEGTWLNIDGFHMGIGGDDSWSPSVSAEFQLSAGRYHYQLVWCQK

For the compound `CC(C)S[C@@H]1O[C@H](CO)[C@H](O)[C@H](O)[C@H]1O` [IPTG], the “fluorescent signal upon introduction of inhibitor (inhibition of the enzyme/substrate interaction)” value is “greatly reduced”.
